Results from US8563738B2, “Ligands for copper-catalyzed azide-alkyne cycloaddition reactions” (The Scripps Research Institute, priority 2007, dated 2013).

Experiments:
[1] = Second-order rate constants of CuAAC reaction by LC-MS of quenched aliquots; details: for relative catalytic rate (second-order specific activity): ligand:Cu 2:1, 0.1 mM Cu, 1-2 mM substrates, 4:1 DMSO:aqueous buffer, sodium ascorbate; for change in rate with pH: pH of the aqueous component raised from 7 to 8
Experimental: The relative effectiveness of Cu-ligand complexes was evaluated on the reaction between phenylacetylene and benzyl azide in 4:1 DMSO:aqueous buffer containing sodium ascorbate as reducing agent, which has served as the standard reaction in previous mechanistic studies (Rodionov, V. O.; et al. Angew. Chem. Int. Ed. 2005, 44, 2210-2215). Ligand:Cu ratios are used herein to describe the amounts of each component added, and designate mixtures of ligands and copper ions according to those ratios for convenience. However, it must be emphasized that the active catalysts are not necessarily composed of those same ratios of ligand and metal as are placed in the reaction vessel. The equilibria that govern the composition of these catalysts are discussed below, and their study will be the subject of a separate publication.
Absolute rates were determined under relatively dilute conditions (1-2 mM in substrates), which were required to slow the reactions enough so that aliquots could be reliably taken over a substantial fraction of the completion curve. Each aliquot was immediately quenched and the amount of product formed monitored by quantitative LC-MS against an internal standard. In this way, the clean conversion to triazole was verified in each case, information that is not available by following the disappearance of azide or alkyne by infrared spectroscopy. Plots of product concentrations vs. time fitted very well to second-order kinetics over at least 70% of the reaction (FIG. 2A). […] For this reason, comparisons were made between second-order specific activities (rate constants determined at a standard Cu concentration of 0.1 mM) for catalysts composed of 2:1 mixtures of ligands and Cu(I), in the presence of excess ascorbate relative to Cu.
Reagent stock solutions were freshly prepared before use. In a typical experiment, reactions were set up in the first column of a deep-well polypropylene microtiter plate (2.5 mL well volume). 100 μL of 30% H2O2 and 100 μL of ethanol were dispensed into all other wells.
The reactions were started by the addition of the final component (typically CuSO4 solution). Aliquots of 100 μL were taken at 1-5 minute intervals from the reaction wells with a multichannel pipetman, and transferred to the subsequent columns of wells for quenching. After the desired number of aliquots have been quenched in this fashion, the contents of the plate were transferred to a standard polystyrene 96-well plate for analysis.
LC-MS analysis was performed on an Agilent 1100 (G1946D) instrument, equipped with a 35 mm Agilent ZORBAX® 3.5μ or 1.8μ SB-C18 column. The elution solvent for the detection of 1-benzyl-4-phenyl-1,2,3-triazole was 55:45 H2O:CH3CN, with 0.5% TFA. Analysis of the other triazole products required a solvent gradient (typically from 50:50 to 25:75 H2O:CH3CN, 0.5% TFA over the course of 4-5 minutes). Detection was performed in single ion mode (SIM), which typically allowed for quantitative triazole detection down to 0.1 μM. 1-benzyl-4-phenyl-1,2,3-triazole-d7 was used as internal reference for all experiments.
Equations (2) and (3) were used to find the value of k (kobs) that gives the best fit curve to the experimental data of [P] vs. time.
FIG. 2 summarizes the rate data. Note that the rate constants obtained here are really specific activities at 0.10 mM Cu catalyst concentration. Very similar results were obtained at pH 8 in the presence of 180 mM vs. 10 mM HEPES buffer.
FIG. 2B. Conditions: 1 mM BnN3, 2 mM PhCCH, 0.1 mM CuSO4, 0.2 mM ligand, 4:1 DMSO:HEPES (180 mM), 25 mM NaAsc; pH verified with meter after ascorbate addition. The dots mark observed data points; the solid line is the best second-order fit; an initial “burst” of catalytic activity was not counted in the reported rate constants. Experimental error in rate constants upon repeat measurement is <15% (usually ca. 10%), except where noted.
FIG. 2C. […]

Solubility of ligands = details: for solubility in common organic solvents: including DMSO
[2] = Ligand screening by reaction calorimetry (peak reaction power); details: high reactant concentrations, 1% Cu, 4:1 DMSO:aqueous, 65° C.
Text: Reaction calorimetry was used to evaluate the relative merits of various ligands under practical conditions of organic synthesis, e.g., involving high concentrations of azide and alkyne reagents and low loadings of catalyst. After correction for instrumental heat transfer parameters, thermograms provide a direct real-time measure of reaction rate (power output); integration gives the overall time-vs.-completion curve. […] All such measurements were made in the same 4:1 DMSO:aqueous solvent as before, but at 65° C. rather than room temperature, in order to keep the product triazole in solution at the higher concentrations used.
Calorimetry was performed in an Omnical INSIGHT® 10-channel reaction calorimeter using 40 mL glass vials. In a typical run all the reaction components but one were introduced into the vials inside an inert atmosphere glovebox, and vials were sealed with septum caps. The last reaction component to be added was placed in a Hamilton gastight syringe. The vials and syringes were then allowed to equilibrate inside the preheated instrument (65° C.) for 30 minutes. The reaction was started in all vials by depressing all of the syringes simultaneously. Two vials out of ten were charged only with solvent to obtain readings allowing for compensation for the heat of mixing. The thermograms registered in these two channels upon addition of the last component were used to construct the baseline for the other 8 channels.
Since heat is not transferred to the instrument sensor instantaneously, the thermogram registered by the instrument is dependent on the characteristics of the instrument and reaction vessel. Correction for these extraneous factors must be applied to the recorded thermograms to obtain instrument-independent data (Rosner, T.; et al. J. Am. Chem. Soc. 2001, 123, 1848-1855; Liu, J.-S.; et al. Thermochimica Acta 1994, 236, 113-122). The appropriate dynamic correction function is built into the instrument operating software. Use of vendor supplied software produces the same result as manual correction.
By the same token, catalysts such as Cu.1 that give observable, but not very strong, calorimetry signals cannot be fully analyzed by converting thermograms to completion curves, because a significant amount of the total energy output is lost below the detection threshold of the instrument. TBTA (1) falls into this category, classified as “moderate” ligands. […] However, peak power values (i.e., maximum reaction rate) provided a reproducible relative measure of relative catalytic efficiency.
Ligands were screened under the following conditions: 250 mM benzyl azide, 454 mM phenylacetylene, 2 mM CuSO4, 4 mM ligand, 25 mM sodium ascorbate. Phenylacetylene was the last component added. Initial screening was performed with at least two independent trials for each ligand. Candidates showing promising activity were then examined with at least three independent trials to obtain reliable estimations of experimental error.

[3] = Second-order rate constants of CuAAC reaction by LC-MS of quenched aliquots; details: 4:1 DMSO:buffer, Tris buffer over a standard range of concentrations

| SMILES | relative catalytic rate (second-order specific activity) [1] | relative catalytic activity by calorimetry [2] | further results |
| --- | --- | --- | --- |
| O=C([O-])Cn1c(CN(Cc2nc3ccccc3n2CC(=O)[O-])Cc2nc3ccccc3n2CC(=O)[O-])nc2ccccc21.[K+].[K+].[K+] [(BimC1A)3] | one of the least effective catalysts in the series |  | water solubility (Solubility of ligands; water): water-soluble |
| CCOC(=O)Cn1c(CN(Cc2nc3ccccc3n2CC(=O)OCC)Cc2nc3ccccc3n2CC(=O)OCC)nc2ccccc21 [(BimC1E)3, Triethyl 2,2′,2″-(2,2′,2″-nitrilotris(methylene)tris(1H-benzimidazole-2,1-diyl)) triethanoate] | performing as well as the parent structure (BimH)3 |  |  |
| CC(C)(C)OC(=O)Cn1c(CN(Cc2nc3ccccc3n2CC(=O)OC(C)(C)C)Cc2nc3ccccc3n2CC(=O)OC(C)(C)C)nc2ccccc21 [(BimC1E′)3] | performing as well as the parent structure (BimH)3 |  |  |
| Cn1c(CN(Cc2nc3ccccc3n2C)Cc2nc3ccccc3n2C)nc2ccccc21 [(BimC1H)3] | performing as well as the parent structure (BimH)3 |  | solubility in common organic solvents (Solubility of ligands): unusually low solubility |
| O=C([O-])CCCn1c(CN(Cc2nc3ccccc3n2CCCC(=O)[O-])Cc2nc3ccccc3n2CCCC(=O)[O-])nc2ccccc21.[K+].[K+].[K+] [(BimC3A)3] | noticeably better catalyst performance | best in the class |  |
| O=C([O-])CCCCn1c(CN(Cc2nc3ccccc3n2CCCCC(=O)[O-])Cc2nc3ccccc3n2CCCCC(=O)[O-])nc2ccccc21.[K+].[K+].[K+] [(BimC4A)3, Potassium 5,5′,5″-(2,2′,2″-nitrilotris(methylene)tris(1H-benzimidazole-2,1-diyl))tripentanoate] | noticeably better catalyst performance | best in the class | relative catalytic rate (second-order specific activity) ([1]; listed as (BimC4A)): strong rate acceleration through a wide pH range |
| CCOC(=O)CCCCn1c(CN(Cc2nc3ccccc3n2CCCCC(=O)OCC)Cc2nc3ccccc3n2CCCCC(=O)OCC)nc2ccccc21 [(BimC4E)3, Triethyl 5,5′,5″-(2,2′,2″-nitrilotris(methylene)tris(1H-benzimidazole-2,1-diyl))tripentanoate] | just as active as its hydrolyzed (carboxylate) analog |  |  |
| O=C([O-])CCCCCn1c(CN(Cc2nc3ccccc3n2CCCCCC(=O)[O-])Cc2nc3ccccc3n2CCCCCC(=O)[O-])nc2ccccc21.[K+].[K+].[K+] [(BimC5A)3] | noticeably better catalyst performance | best in the class |  |
| c1ccc2[nH]c(CN(Cc3nc4ccccc4[nH]3)Cc3nc4ccccc4[nH]3)nc2c1 [(BimH)3, Tris-(2-benzimidazolylmethyl)amine, reference compound] |  |  | change in rate with pH [1]: more sensitive; effect of Tris buffer on rate [3]: slowed significantly |
| O=S(=O)(O)c1ccc2[nH]c(CN(Cc3nc4cc(S(=O)(=O)O)ccc4[nH]3)Cc3nc4cc(S(=O)(=O)O)ccc4[nH]3)nc2c1 [(BimH/S)3, reference compound] | strong rate acceleration through a wide pH range |  |  |
| c1ccc2[nH]c(CN(Cc3nc4ccccc4s3)Cc3nc4ccccc4s3)nc2c1 [(Bth)2(BimH), N-((1H-benzimidazol-2-yl)methyl)-1-(benzothiazol-2-yl)-N-(benzothiazol-2-ylmethyl)methanamine] | best ligand in the series | largely inactive | effect of HEPES buffer on rate ([1]; 180 mM HEPES): faster turnover; change in rate with pH [1]: very little change in rate |
| c1ccc2sc(CN(Cc3nc4ccccc4s3)Cc3nc4ccccc4s3)nc2c1 [(Bth)3, Tris-(2-benzothiazolylmethyl)amine] |  | largely inactive | change in rate with pH [1]: more sensitive; solubility in common organic solvents (Solubility of ligands): unusually low solubility |
| c1ccc2[nH]c(CN(Cc3nc4ccccc4[nH]3)Cc3nc4ccccc4s3)nc2c1 [(Bth)(BimH)2, N,N-bis((1H-benzimidazol-2-yl)methyl)-1-(benzothiazol-2-yl)methanamine] |  | largely inactive |  |
| c1ccc(CN(Cc2ccccn2)Cc2ccccn2)nc1 [(Py)3, tris(pyridylmethyl)amine, reference compound] | slower than those observed for the “ligand-free” case | one of the best ligands in calorimetry screening |  |
| c1ccc2[nH]c(CNCc3nc4ccccc4[nH]3)nc2c1 [H(BimH)2, Bis-(2-benzimidazolylmethyl)amine, reference compound] | slower than those observed for the “ligand-free” case |  |  |
| Cc1cc(C)c(-n2ccn(-c3c(C)cc(C)cc3C)[c]2=[Cu][Cl])c(C)c1 [Ligand S1, reference compound] |  | no detectable exothermic heat flow |  |
| Cn1ccn(-c2cccc(-n3ccn(C)[c]3=[Cu][Cl])n2)[c]1=[Cu][Cl] [Ligand S3, reference compound] |  | in the range of TBTA (1) |  |
